Read-outs that look alike come from different tables or passages of the source.
Tests used:
[1] = Size and charge determination of nanoparticles (Zetasizer Nano ZS), Example 1; format: physicochemical
Source text: Size and Charge Determination.

BALB/c mice [2] = test: Anti-hAAT antibody titers and IgG subclass ratios; format: in vivo, mouse; settings: for increase of anti-hAAT titers: 25 μg hAAT protein administered with 1 mM lipid, day 14
Method: To assess the presence of antibodies toward hAAT, 50 μL of hAAT (OriGene #RG202082) was plated at 2 μg/mL in carbonate buffer, pH 9.7, on a 96 well high binding plate (Greiner #82050-720) and incubated overnight at 4° C. The next day, the plates were washed with PBS containing 0.1% Tween-20 (PBS-T) and blocked for 1 hour with PBS-C at 37° C. After blocking, serum samples were plated at dilutions ranging from 1:100 to 1:1,000,000 and incubated at 37° C. for 2 hours. Secondary antibody (goat anti-mouse IgG HRP; Invitrogen #16066) diluted 1:2000 was applied for 30 min at 37° C., followed by a 30 min. incubation with tetramethylbenzidine (Rockland). Absorbance at 450 nm was recorded using a BioTek Synergy H1 microplate reader. Reciprocal endpoint titers were determined by plotting A450 values versus known dilutions, calculating the slope of that line, and dividing the slope by two times the average of the blank (no serum) wells.
Anti-hAAT IgG subclass ratios were assessed as described above, using a single 1:100 sample dilution and the following detection antibodies: goat anti-mouse IgG1-HRP (Abcam ab98693) at 1:10,000, IgG2a-HRP (Abcam ab98698) at 1:5000, IgG2b-HRP (Abcam ab98703) at 1:10,000 and IgG3 (Jackson 115-035-209) at 1:5000. Subclass ratios were calculated by dividing the absorbance of each subclass by that of IgG1 for each individual mouse.

[3] = Differential scanning calorimetry, transition temperature (Tm) of lipids; format: physicochemical; settings: liposomes of pure lipid, 10 mM in 20 mM HEPES, DSC
Method: Differential Scanning calorimetery. The transition temperature (Tm) of the lipids was determined using a multicell differential scanning calorimeter (TA Instruments). Liposomes were made with triazine lipids at a concentration of 10 mM in 20 mM HEPES buffer. These were heated to 60° C. and sonicated until the solution was translucent. For Tm determination, 250 μL of the liposome solution was transferred into reusable hastelloy ampoules while 250 μL of the HEPES solution was transferred to the third ampoule, leaving the reference ampoule empty. […] Data was collected over a range of 10-110° C. at a rate of 2° C. min-1 in a heat-cool-heat cycle. After the run was complete, the CpCalc 2.1 software package was used to convert the raw data into a molar heat capacity and the data from the second heating cycle were processed using Microsoft Excel.

[4] = test system: bone marrow derived macrophages; test: in vitro; format: cell-based
Method: (§1) Cell Culture of Bone Marrow-Derived Macrophages. […] After 7 days, the cells were transferred to tissue culture 96 well plates (Corning) at a density of 100,000 in 20 μL of medium and allowed to settle overnight for subsequent assays.
(§2) Lactate Dehydrogenase Release (LDH) Toxicity Assay. For determination of cytotoxicity, mature bone marrow-derived macrophages (BMDM) were treated with 20 μL of the lipids (concentrations denoted in figure legend) diluted in 20 mM HEPES buffer, with HEPES buffer as negative control and 10% Triton X-100 as positive control. After 24 hours, the 96 well plates were centrifuged at 200×g for 5 minutes to remove debris and 100 μL of media was transferred to an untreated flat-bottom 96 well plate. Next, 100 μL of LDH reaction reagent purchased from Cayman Chemical (Ann Arbor, MI) was added to each and allowed to sit for 30 minutes at 37° C. Absorbance at 490 and 680 nm were measured using a BioTek Synergy H1 plate reader and the data were processed using Microsoft Excel. Mean values from triplicates are shown for one of two independent experiments.

BALB/c mice [5] = test: In vivo hAAT transfection efficiency, serum ELISA and ALT; design: species or system mouse; settings: LPs (50% cationic lipid, 50% DOPE), 10,000 ng hAAT plasmid DNA i.p., 72 hours
Method: To assess in vivo hAAT transfection efficiency, mice were administered 200 μL nanoparticles or PBS vehicle i.p. at the doses indicated in the figure legend. Seventy-two hours after injection the mice were bled again for assessment of ALT levels and hAAT expression. hAAT levels were determined via ELISA using serum diluted 1:1 in PBS containing 0.05% casein (PBS-C; 124250; Beantown Chemical), as described previously.^38

C57BL/6J mice = test: In vivo toxicity of cationic lipid nanoparticles (ALT, IL-6, SCr, mortality)
[6] = Characterization of nanoparticles (size, zeta potential, DNA encapsulation), Example 2; format: physicochemical; settings: LNPs made with the cationic lipid
Method: The concentration of DNA in LNPs after dialysis was quantified using an AccuClear® Ultra High Sensitivity dsDNA Quantification Kit (Biotium #31027) and quantified on a BioTek Synergy H1 plate reader. Encapsulation efficiencies were determined by comparing the amount of DNA in the LNP solution vs. the DNA solution used to make them, after disrupting the LNPs with 0.5% Cl2E10 (Abcam #ab146563) and adjusting for volume differences (i.e.: excess volume added during dialysis and dilution volume during ethanol mixture).

canonical NFKB = test: THP-1-Blue NFKB reporter (SEAP) assay; format: cell-based, human; settings: read-out: IC50, canonical NFKB inhibition
in vitro = format: cell-based; settings: female, C57BL/6J, mouse
Method: as §1, §2

HeLa cells = test: Transfection of luciferase plasmid; format: cell-based
Method: Transfection of Luciferase Plasmid and Cell Viability. HeLa cells cultured in EMEM (ATCC) supplemented with 10% fetal bovine serum were transferred to a 96 well plate, in quadruplicate, at a density of 20,000 cells per well and incubated for 24 hours at 37° C. in 5% CO2. Liposomes made with a 1:1 ratio of DOPE and TZ lipid were added to 200 ng pGL3 Luciferase Reporter Vector (Promega) at N:P ratios of 2.5, 5 and 10, and incubated at 37° C. for 10 minutes before being diluted in 100 μL of nonsupplemented EMEM and added to the cells. Following a four hour incubation at 37° C., the media was changed, and the cells were incubated for another twenty hours, at which point the cells were lysed with a cell culture lysis reagent at pH 7.8 composed of 25 mM Tris-phosphate buffer, 0.7 g L^−1 1,2-diaminocyclohexane, 10% glycerol, 1% Triton X-100, and 1% protease inhibitor cocktail (Millipore). Total protein content was determined with a bicinchoninic acid assay (G-Biosciences) and luciferase protein expression was quantified by a luciferase assay (Promega). Cell viability was assessed using a Cell Titer Blue assay kit (Promega) based on the manufacturer's instructions. In each of the three independent experiments performed, transfection was compared with cells treated with Lipofectamine 3000 (Thermo), following the manufacturer's instructions, and with DNA treated cells.

[7] = Nanoparticle pKa via TNS fluorescence; format: physicochemical; settings: liposomes, pH 2.5 to 12
Method: Determination of Nanoparticle pKa via TNS Fluorescence. […] The solutions were mixed by pipetting and incubated at room temperature for 10 minutes, before being analysed for fluorescence intensity using a 321 nm excitation and 445 nm emission wavelengths.

[8] = liposomes, lipid:DOPE mixtures, lipoplexes, immunization liposomes (Table 2)
[9] = nanoparticles of pure lipid (Table 1)
[10] = nanoparticles of pure lipid, 1 mM, 25° C. (Table 1)
[11] = unstable nanoparticles of lipids 11 and 12, text
[12] = zeta potential, nanoparticles of pure lipid (Table 1)
[13] = 20 mM lipid, i.p., versus baseline

CCCCCCCC/C=C\CCCCCCCCOCC(C[N+](C)(C)C)OCCCCCCCC/C=C\CCCCCCCC (stereo not drawn) [DOTMA, 1,2-di-O-octadecenyl-3-trimethylammonium propane, reference compound]
PDI ([1]; Table 2): 0.43 ± 0.06 | Size [1, 8]: 105 ± 2 nm | Charge ([1]; zeta potential (Table 2)): 70 ± 4 mV

CCCCCCCCCCCCCCCCCC(=O)OC[C@@H](COP(=O)([O-])OCC[N+](C)(C)C)OC(=O)CCCCCCCCCCCCCCCCC (stereo in doubt) [DSPC, 1,2-distearoyl-sn-glycero-3-phosphocholine, reference compound]
increase of anti-hAAT titers (BALB/c mice [2]): 100 fold

CCCCCCCCCCCCN(CCCCCCCCCCCC)c1nc(NCCCN)nc(NCCC(=O)O)n1 [Lipid 11]
Tm [3]: < 10 °C | IC50 [4]: 277 µM | PDI [1, 9]: Unstable Unstable | Size [1, 10]: Unstable Unstable | PDI [1, 11]: 0.98 | Charge [1, 12]: 42 ± 5 mV

CCCCCCCC/C=C\CCCCCCCC(=O)OCC(C[N+](C)(C)C)OC(=O)CCCCCCC/C=C\CCCCCCCC.[Cl-] (stereo not drawn) [DOTAP, 1,2-dioleoyl-3-trimethylammonium propane, reference compound]
average hAAT levels in serum (BALB/c mice [5]): 3 ng/mL | interleukin 6 (IL-6) (C57BL/6J mice; [13]): neither these nor the IL-6 elevation in DOTAP-treated mice reached statistical significance | increase of anti-hAAT titers (BALB/c mice [2]): 10 fold | anti-hAAT IgG titers (BALB/c mice [2]; transgene delivery, 10 μg hAAT DNA, day 14, versus untreated mice): significantly higher anti-hAAT titers than untreated mice | Th1/Th2 response (ratios of IgG2a, 2b, and 3 over IgG1) (BALB/c mice [2]; transgenic hAAT delivery with LPs): balanced Th1/Th2 response | encapsulation of DNA (general) [6]: 70-80% | IC50 (canonical NFKB; Homo sapiens, 24 h): 28 µM

CCCCCCCCCCCCN(CCCCCCCCCCCC)c1nc(NCCS)nc(NCCC(=O)O)n1 [Lipid 5]
Tm [3]: < 10 °C | IC50 [4]: 679 µM | PDI [1, 9]: 0.40 ± 0.00 | Size [1, 10]: 87 ± 2 nm | Charge [1, 12]: −73 ± 6 mV

CCCCCCCCCCCCN(CCCCCCCCCCCC)c1nc(NCCCN(C)C)nc(NCCCN(C)C)n1 [Lipid 9]
Tm [3]: < 10 °C | LD50 ([4]; female, C57BL/6J, mouse, 24 h): 337000 µM | IC50 at 24 h (in vitro): 337 µM | deaths (C57BL/6J mice; 10 mM lipid, i.p.): one mouse dying | interleukin 6 (IL-6) (C57BL/6J mice; 10 mM lipid, i.p.): statistically significant increases | serum alanine aminotransferase (ALT) (C57BL/6J mice; 10 mM lipid, i.p.): statistically significant increases | deaths (C57BL/6J mice; 20 mM lipid, i.p.): three of the ten mice in this group died | interleukin 6 (IL-6) (C57BL/6J mice; [13]): significant elevations | serum alanine aminotransferase (ALT) (C57BL/6J mice; [13]): significant elevations | serum creatinine (SCr) (C57BL/6J mice; [13]): elevated but did not reach statistical significance | in vivo toxicity (overall) (C57BL/6J mice; 100 μL cationic lipid nanoparticles i.p.): confers significant toxicity and mortality | visual examination of internal organs (C57BL/6J mice; 72 hours, 10 and 20 mM): significant inflammation and swelling throughout the intestines and abdominal cavity | PDI [1, 9]: 0.24 ± 0.00 | Size [1, 10]: 159 ± 1 nm | Charge [1, 12]: 45 ± 2 mV | plasmid transfection (luciferase) (HeLa cells; TZ lipid:DOPE 1:1, compared with naked plasmid): better efficacy than the lipids with C18 tails | luciferase expression (HeLa cells; average, lipid 9:DOPE 1:1 at an N:P ratio of 5, 200 ng pGL3): 462 RLU per mg

CCCCCCCCCCCCCCCCCCN(CCCCCCCCCCCCCCCCCC)c1nc(NCCCN)nc(NCCC(=O)O)n1 [Lipid 12]
Tm [3]: 42 °C | IC50 [4]: 227 µM | PDI [1, 9]: Unstable Unstable | Size [1, 10]: Unstable Unstable | PDI [1, 11]: 0.51 | Charge [1, 12]: 70 ± 5 mV

CCCCCCCCCCCCN(CCCCCCCCCCCC)c1nc(NCCC(=O)O)nc(NCCC(=O)O)n1 [Lipid 1]
Tm [3]: < 10 °C | IC50 [4]: 1100 µM | PDI [1, 9]: 0.24 ± 0.02 | Size [1, 10]: 124 ± 2 nm | Charge [1, 12]: −63 ± 4 mV

CCCCCCCCCCCCCCCCCCN(CCCCCCCCCCCCCCCCCC)c1nc(NCCCN(C)C)nc(NCCCN(C)C)n1 [Lipid 10]
Tm [3]: 28 °C | IC50 ([4]; LDH release, 24 hours (Table 1), read-out: ID50 (the source's name)): 261 µM | PDI [1, 9]: 0.28 ± 0.01 | Size [1, 10]: 186 ± 1 nm | Charge [1, 12]: 47 ± 1 mV

CCCCCCCCCCCCCCCCCCN(CCCCCCCCCCCCCCCCCC)c1nc(NCCS)nc(NCCC(=O)O)n1 [Lipid 6]
Tm [3]: 40 °C | IC50 [4]: 988 µM | PDI [1, 9]: 0.27 ± 0.01 | Size [1, 10]: 93 ± 2 nm | Charge [1, 12]: −71 ± 5 mV

CCCCCCCCCCCCCCCCCCN(CCCCCCCCCCCCCCCCCC)c1nc(NCCCN)nc(NCCCN)n1 [Lipid 4]
Tm [3]: 33 °C | IC50 [4]: 180 µM | pKa [7]: 5.59 | PDI [1, 9]: 0.28 ± 0.00 | Size [1, 10]: 326 ± 1 nm | Charge [1, 12]: 63 ± 3 mV | IC50 (canonical NFKB; THP-1-Blue cells stimulated with TNFα, 24 h lipid treatment): 29 µM

CCCCCCCCCCCCCC(=O)OC[C@H](COP(=O)([O-])OCC[N+](C)(C)C)OC(=O)CCCCCCCCCCCCC [DMPC, 1,2-Dimyristoyl-sn-glycero-3-phosphocholine, reference compound]
LD50 ([4]; LDH activity, BMDMs incubated 24 hours, text of Example 3): 969 µM | LD50 ([4]; LDH release, 24 hours (Table 2)): 969 µM | PDI ([1]; Table 2): 0.39 ± 0.01 | Size [1, 8]: 277 ± 45 nm | Charge ([1]; zeta potential (Table 2)): −9 ± 0.3 mV
